{"source": "patent US6399570B1", "about": "“Antimicrobial/endotoxin neutralizing polypeptide” (priority 1999, dated 2002)", "key": {"E. coli 0111 [1]": {"tested_on": "E. coli 0111", "test": "Time course of E. coli growth in the presence of LF polypeptides", "type": "cell-based", "conditions": "50 μM, seven hour time course, OD 600 nm", "protocol": "To investigate whether regions of the molecule involved in GAG binding activity of the 6 kDa LF polypeptide (generated from pepsin digestion) are also involved in the antimicrobial activity of the 6 kDa polypeptide of the present invention, polypeptides of various lengths corresponding to the N-terminal amino acid sequence of LF were tested for the ability to inhibit the growth of E. coli 0111. Overnight cultures were grown over a seven hour time course in the presence of 50 μM of either LF, a 33-mer corresponding to amino acids 1-33 of LF, a 26-mer corresponding to […] of LF, a 27-mer corresponding to amino acids 1-27 of LF. […] This is consistent with LF and the 33-mer inhibiting bacterial growth via different mechanisms. […] The failure of the 26-mer and the 27-mer to inhibit culture growth emphasizes the importance of retaining both clusters of basic residues, at the termini of the 33-mer, for the antimicrobial functionality of polypeptides derived from the N-terminal LF sequence.\nTime course of E. coli growth in the presence of LF polypeptides. E. coli cells, clinical isolate strain 0111, were obtained from ATCC. […] Culture growth was monitored spectrophotometrically by measuring optical density at 600 nm at each indicated time point."}, "Lipid A": {"tested_on": "Lipid A", "test": "Limulus ELISA, ENC50 against Lipid A", "type": "biochemical, E. coli K12", "protocol": "The peptide-mediated inhibition of endotoxin-induced Limulus amebocyte lysate (LAL) coagulation was measured with a sensitive LAL assay (Zhang et al., J. Clin. Microbiol. 32: 416-422 (1994)). Limulus ELISA is an endotoxin assay based on activation of the LAL coagulation by endotoxin and detection of the generated peptide-C immunoreactivity with an ELISA using a monoclonal antibody to the polypeptide. Endotoxin was defined to be neutralized when it lost its ability to activate the LAL enzymes. The 50% endotoxin-neutralizing concentration (ENC50) reflects the potency of an anti-endotoxin agent; a low ENC50 indicates high potency. Table 2 lists the determined ENC50 value of each anti-endotoxin agent against lipid A and four different types of LPS. The potency of each anti-endotoxin agent varied depending on the type of endotoxin. […] The only difference between the sequence of LF-33 and LF-27 is that LF-27 lacks the first six residues (GRRRRS) at the N-terminus of LF-33. Remarkably, this deletion led to dramatic loss of the endotoxin-neutralizing capacity of the polypeptide in this assay. Binding of serum proteins to endotoxin neutralizes the endotoxin activity in this assay by preventing endotoxin from activating LAL (Emancipator et al., Infect. Immun. 60: 596-601 (1992)).\nLPS. […] LPS (purity >99%) from Neisseria meningitidis was prepared from the group B strain #6275 and its potency was 25 EU/ng. […] The potency of the above endotoxin was determined with the Limulus enzyme-linked immunosorbent assay (ELISA, 43) in comparison with US Pharmacopeia reference standard endotoxin EC-5.\nBriefly, 25 μl endotoxin solution (200 EU/ml) was mixed with an equal volume of test materials in a series of two-fold dilution in 0.15 M NaCl in a sterile 96-well tissue culture plate (Nunc A/S, Roskilde, Denmark), and incubated at 37° C. for 1 h in a dry-air incubator. […] The endotoxin activity was then quantified with the use of Limulus ELISA (Zhang et al., J. Clin. Microbiol. 32: 416-422 (1994)). […] The high sensitivity of the assay allowed for very low levels of the endotoxin activity to be detected. […]"}, "E. coli 0111 [2]": {"tested_on": "E. coli 0111", "test": "Galactosamine-sensitized, leukopenic mouse model of bacteremic lethality", "type": "in vivo, CF-1 mice", "conditions": "100 μM, i.p., simultaneous with lethal E. coli dose; 10% in untreated animals", "protocol": "The ultimate protective potential of the LF 6 kDa polypeptide in a host-defense against bacterial infection was determined by testing in an acute, galactosamine-sensitized, leukopenic mouse model system (Bucklin et al., J. Infect. Dis. 174: 1249-1254 (1996)). In this model, mice were made leukopenic to suppress their endogenous host defense systems and then sensitized to the effects of Gram-negative endotoxins by galactosamine treatment while injecting a lethal intraperitoneal dose of E. coli. […] This rescue from lethality dramatically illustrates the protective potential of the polypeptide in vivo and is likely due to its combined antimicrobial and anti-endotoxin properties.\nGeneration of galactosamine-sensitized, leukopenic mouse model system. CF-1 mice were rendered immunocompromised by cyclophosphamide treatment three days prior to galactosamine-sensitizing them to the lethal effects of injection with an LD90 dose of E. coli 0111 (Bucklin et al., J. Infect. Dis. 174: 1249-1254 (1996)). Under these conditions, circulating leukocytes were reduced by 85% and the LD90 was determined to be 5×10^3 CFU E. coli."}}, "data": [{"compound": "CSCC[C@H](NC(=O)[C@H](CC(N)=O)NC(=O)[C@H](CCCNC(=N)N)NC(=O)[C@H](CCC(N)=O)NC(=O)[C@H](Cc1c[nH]c2ccccc12)NC(=O)[C@H](CCC(N)=O)NC(=O)[C@H](Cc1ccccc1)NC(=O)[C@H](CS)NC(=O)[C@H](CCCCN)NC(=O)[C@@H](NC(=O)[C@H](C)NC(=O)[C@H](CCC(=O)O)NC(=O)[C@@H]1CCCN1C(=O)[C@H](CCC(N)=O)NC(=O)[C@H](CO)NC(=O)[C@@H](NC(=O)[C@H](C)NC(=O)[C@H](CS)NC(=O)[C@H](Cc1c[nH]c2ccccc12)NC(=O)[C@H](CCC(N)=O)NC(=O)[C@@H](N)C(C)C)C(C)C)[C@@H](C)O)C(=O)N[C@@H](CCCNC(=N)N)C(=O)N[C@@H](CCCCN)C(=O)N[C@H](C(=O)N[C@@H](CCCNC(=N)N)C(=O)NCC(=O)N1CCC[C@H]1C(=O)O)C(C)C", "note": "[LF-27]", "values": [{"measurement": "growth of E. coli 0111 cultures", "setting": "E. coli 0111 [1]", "result": "failure"}, {"measurement": "fold less potent than LF-33 at neutralizing lipid A", "setting": "Lipid A", "result": "approximately 10 fold"}, {"measurement": "IC50", "setting": "Lipid A; endotoxin 200 EU/ml, mean +/− SD", "result": 630, "unit": "nM"}]}, {"compound": "6 kDa polypeptide: 6 kDa fragment produced by cathepsin D digestion of human LF, amino acids 1-49 of SEQ ID NO: 2 (GRRRRSVQWCAVSQPEATKCFQWQRNMRKVRGPPVSCIKRDSPIQCIQA; listed as Homo sapiens)", "values": [{"measurement": "survival rate of infected animals", "setting": "E. coli 0111 [2]", "result": 70, "unit": "%"}]}]}
